Measurements from US5972894A, “Peptides having potassium channel opener activity” (Cytran, Inc., priority 1997, dated 1999).
Residues, ends and D or L forms follow the SMILES beside them.

Tested on: ischemic myocardium
Experiment: Inotropic function and arrhythmias of ischemic isolated rat heart during reperfusion
Conditions: for Number of Ventricular Extrasystoles / Overall Duration of Ventricular Fibrillation / Overall Duration of Ventricular Tachycardia: 30-minute reperfusion
Source text: Rat hearts were surgically isolated from white random-bred rats weighing approximately 250 g. The isolated hearts were perfused with a standard oxygenated (95% O2 and 5% CO2) Krebs-Henseleit solution in a retrograde manner (i.e., according to Langendorff and using a constant perfusate pressure of 80 cm of water). The hearts maintained a steady spontaneous contraction rate. A latex balloon catheter connected to a pressure transducer (EMT-746, Siemens-Elema, Sweden) was inserted into the left ventricle of each heart to measure the inotropic function of the heart (as described in Example 3, above). The left ventricle pressure variation curve was recorded using a polygraph.
Stage I ("adaptation regimen") consisted of a 30-minute adaptation of the respective rat hearts to the perfusion regimen. The baseline parameters for the inotropic function of each heart were recorded to establish the preischemic values for the following measured parameters: (i) the systolic pressure in the left ventricle (Psyst. mm Hg); (ii) the diastolic pressure in the left ventricle (Pdiast. mm Hg); (iii) the evolving pressure (Pev. =Psyst. -Pdist. mm Hg); (iv) the maximal rate of increase of left ventricle pressure (+dp/dtmax mm Hg/sec); and (v) the maximal rate of decrease of left ventricle pressure (-dp/dtmax mm Hg/sec). In addition, the heart rate (HR) of each heart was determined from the recordings made of the variations in the left ventricle pressure over time. In Stage II ("ischemic simulation"), ischemia was induced in each heart by shutting off the supply of the perfusion solution to the heart. Approximately 30 minutes later, Stage III ("reperfusion regimen") was initiated by restarting the reperfusion and including in the perfusate solution a test or control substance at one of the following respective concentrations: a perfusate solution of a test substance comprised 0.06, 0.6, or 6.0 mg/l GE, or 0.06, 0.6, or 6.0 mg/l VT, respectively; a perfusate solution of the positive control substance comprised 14 mg/l inosine. Inosine is a nucleoside preparation that produces a favorable inotropic effect on both normal and ischemic myocardium while inducing no rhythm disturbances or acceleration of ischemic contracture development. Woollard et al., Cardiovasc. Res. 15: 659-67 (1981). Inosine was obtained from Sigma Chemical Company, USA (Cat. Code I-4125; lot number 81H0227). The negative control substance comprised reperfusion using a standard oxygenated Krebs-Henseleit solution.
For each heart, the inotropic function of the myocardium was evaluated by measuring the parameters (i) through (v), discussed above, and the heart rate. These six parameters were recorded continuously throughout the study (i.e., beginning with Stage I and continuing through Stage III). The recordings were analyzed at the following times: (a) immediately before beginning Stage II (that is, after the 30-minute Stage I adaptation period, but before stopping perfusion); and (b) at 1, 5, 10, 20, and 30 minutes into the Stage III reperfusion.
The frequency and duration of rhythm disturbances in the 30-minute Stage III reperfusion period were determined by measuring the following parameters: (i) the number of ventricular extrasystoles; (ii) the overall duration of ventricular tachycardias (in seconds); and (iii) the overall duration of ventricular fibrillation (in seconds). Each dose of the test substance was tested on nine isolated hearts.

NCC(=O)N[C@@H](CCC(=O)O)C(=O)O [GE, L-Glycyl-L-Glutamic acid] (H-Gly-Glu-OH)
Number of Ventricular Extrasystoles (0.06 mg/l): 182.2
Overall Duration of Ventricular Fibrillation (0.06 mg/l): 0 s
Overall Duration of Ventricular Tachycardia (0.06 mg/l): 2.1 s
Diastolic Pressure in Ischemic Left Ventricle (% of Preischemic Mean Value) (0.06 mg/l, 1 min reperfusion): 95.96%
Evolving Pressure in Ischemic Left Ventricle (% of Preischemic Mean Value) (0.06 mg/l, 1 min reperfusion): 117.70%
Heart Rate during Reperfusion (% of Preischemic Mean Value) (0.06 mg/l, 1 min reperfusion): 69.09%
Maximal Rate of Increase of Left Ventricle Pressure (% of Preischemic Mean Value) (0.06 mg/l, 1 min reperfusion): 127.30%
Maximal Rate of Left Ventricle Pressure Decrease (% of Preischemic Mean Value) (0.06 mg/l, 1 min reperfusion): 86.91%
Systolic Pressure in Ischemic Left Ventricle (% of Preischemic Values) (0.06 mg/l, 1 min reperfusion): 115.11%
Diastolic Pressure in Ischemic Left Ventricle (% of Preischemic Mean Value) (0.06 mg/l, 5 min reperfusion): 124.53%
Evolving Pressure in Ischemic Left Ventricle (% of Preischemic Mean Value) (0.06 mg/l, 5 min reperfusion): 92.58%
Heart Rate during Reperfusion (% of Preischemic Mean Value) (0.06 mg/l, 5 min reperfusion): 91.94%
Maximal Rate of Increase of Left Ventricle Pressure (% of Preischemic Mean Value) (0.06 mg/l, 5 min reperfusion): 98.87%
Maximal Rate of Left Ventricle Pressure Decrease (% of Preischemic Mean Value) (0.06 mg/l, 5 min reperfusion): 89.27%
Systolic Pressure in Ischemic Left Ventricle (% of Preischemic Values) (0.06 mg/l, 5 min reperfusion): 98.86%
Diastolic Pressure in Ischemic Left Ventricle (% of Preischemic Mean Value) (0.06 mg/l, 10 min reperfusion): 128.57%
Evolving Pressure in Ischemic Left Ventricle (% of Preischemic Mean Value) (0.06 mg/l, 10 min reperfusion): 86.19%
Heart Rate during Reperfusion (% of Preischemic Mean Value) (0.06 mg/l, 10 min reperfusion): 93.44%
Maximal Rate of Increase of Left Ventricle Pressure (% of Preischemic Mean Value) (0.06 mg/l, 10 min reperfusion): 87.39%
Maximal Rate of Left Ventricle Pressure Decrease (% of Preischemic Mean Value) (0.06 mg/l, 10 min reperfusion): 82.04%
Systolic Pressure in Ischemic Left Ventricle (% of Preischemic Values) (0.06 mg/l, 10 min reperfusion): 89.79%
Diastolic Pressure in Ischemic Left Ventricle (% of Preischemic Mean Value) (0.06 mg/l, 20 min reperfusion): 134.92%
Evolving Pressure in Ischemic Left Ventricle (% of Preischemic Mean Value) (0.06 mg/l, 20 min reperfusion): 74.40%
Heart Rate during Reperfusion (% of Preischemic Mean Value) (0.06 mg/l, 20 min reperfusion): 72.87%
Maximal Rate of Increase of Left Ventricle Pressure (% of Preischemic Mean Value) (0.06 mg/l, 20 min reperfusion): 87.39%
Maximal Rate of Left Ventricle Pressure Decrease (% of Preischemic Mean Value) (0.06 mg/l, 20 min reperfusion): 75.11%
Systolic Pressure in Ischemic Left Ventricle (% of Preischemic Values) (0.06 mg/l, 20 min reperfusion): 84.10%
Diastolic Pressure in Ischemic Left Ventricle (% of Preischemic Mean Value) (0.06 mg/l, 30 min reperfusion): 91.20%
Evolving Pressure in Ischemic Left Ventricle (% of Preischemic Mean Value) (0.06 mg/l, 30 min reperfusion): 68.73%
Heart Rate during Reperfusion (% of Preischemic Mean Value) (0.06 mg/l, 30 min reperfusion): 68.67%
Maximal Rate of Increase of Left Ventricle Pressure (% of Preischemic Mean Value) (0.06 mg/l, 30 min reperfusion): 70.93%
Maximal Rate of Left Ventricle Pressure Decrease (% of Preischemic Mean Value) (0.06 mg/l, 30 min reperfusion): 66.02%
Systolic Pressure in Ischemic Left Ventricle (% of Preischemic Values) (0.06 mg/l, 30 min reperfusion): 72.11%
Number of Ventricular Extrasystoles (0.6 mg/l): 168.5
Overall Duration of Ventricular Fibrillation (0.6 mg/l): 44.3 s
Overall Duration of Ventricular Tachycardia (0.6 mg/l): 22.2 s
Diastolic Pressure in Ischemic Left Ventricle (% of Preischemic Mean Value) (0.6 mg/l, 1 min reperfusion): 69.70%
Evolving Pressure in Ischemic Left Ventricle (% of Preischemic Mean Value) (0.6 mg/l, 1 min reperfusion): 71.90%
Heart Rate during Reperfusion (% of Preischemic Mean Value) (0.6 mg/l, 1 min reperfusion): 52.28%
Maximal Rate of Increase of Left Ventricle Pressure (% of Preischemic Mean Value) (0.6 mg/l, 1 min reperfusion): 71.21%
Maximal Rate of Left Ventricle Pressure Decrease (% of Preischemic Mean Value) (0.6 mg/l, 1 min reperfusion): 53.56%
Systolic Pressure in Ischemic Left Ventricle (% of Preischemic Values) (0.6 mg/l, 1 min reperfusion): 74.01%
Diastolic Pressure in Ischemic Left Ventricle (% of Preischemic Mean Value) (0.6 mg/l, 5 min reperfusion): 113.42%
Evolving Pressure in Ischemic Left Ventricle (% of Preischemic Mean Value) (0.6 mg/l, 5 min reperfusion): 83.73%
Heart Rate during Reperfusion (% of Preischemic Mean Value) (0.6 mg/l, 5 min reperfusion): 85.30%
Maximal Rate of Increase of Left Ventricle Pressure (% of Preischemic Mean Value) (0.6 mg/l, 5 min reperfusion): 84.14%
Maximal Rate of Left Ventricle Pressure Decrease (% of Preischemic Mean Value) (0.6 mg/l, 5 min reperfusion): 79.56%
Systolic Pressure in Ischemic Left Ventricle (% of Preischemic Values) (0.6 mg/l, 5 min reperfusion): 90.02%
Diastolic Pressure in Ischemic Left Ventricle (% of Preischemic Mean Value) (0.6 mg/l, 10 min reperfusion): 95.24%
Evolving Pressure in Ischemic Left Ventricle (% of Preischemic Mean Value) (0.6 mg/l, 10 min reperfusion): 86.63%
Heart Rate during Reperfusion (% of Preischemic Mean Value) (0.6 mg/l, 10 min reperfusion): 77.07%
Maximal Rate of Increase of Left Ventricle Pressure (% of Preischemic Mean Value) (0.6 mg/l, 10 min reperfusion): 88.69%
Maximal Rate of Left Ventricle Pressure Decrease (% of Preischemic Mean Value) (0.6 mg/l, 10 min reperfusion): 87.20%
